# Measured values taken from patent US11149018B2, “Substituted N-arylethyl-2-aminoquinoline-4-carboxamides and use thereof” (Bayer Aktiengesellschaft, priority 2017, dated 2021).
# Molecular target: FP receptor (Homo sapiens (Human), UniProt P43088)
# Experiment: In vitro test of inhibition of human FP receptor activity (PGF2α-induced calcium flux in FP-expressing CHEM1 cells)
# Type: cell-based
# Conditions: PGF2α 2 nM, some mean values of multiple determinations
# In short: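 FP antagonism in FP-expressing CHEM1 cells loaded with Fluo-8. Compound preincubated 10 min at 37° C, then receptor stimulated with 2 nM (final) PGF2α in calcium-free Tyrode with 2 mM CaCl2.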
# Sequence of FP receptor (P43088 whole entry): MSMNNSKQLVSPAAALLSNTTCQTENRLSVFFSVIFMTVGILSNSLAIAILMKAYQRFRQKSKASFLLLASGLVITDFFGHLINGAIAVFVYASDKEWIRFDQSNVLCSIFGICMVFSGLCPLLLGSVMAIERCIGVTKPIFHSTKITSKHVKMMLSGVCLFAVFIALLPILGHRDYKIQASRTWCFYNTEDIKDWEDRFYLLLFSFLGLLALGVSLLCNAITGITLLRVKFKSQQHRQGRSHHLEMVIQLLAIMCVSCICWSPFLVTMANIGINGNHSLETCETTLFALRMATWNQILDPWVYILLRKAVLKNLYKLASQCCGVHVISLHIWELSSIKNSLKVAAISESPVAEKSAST
row,IC50 [nM],SMILES
1,6.5,"Cc1c(N2CC[C@@H](F)C2)nc2ccc(Br)cc2c1C(=O)NCC(CCC(=O)O)c1ccccc1Cl (single isomer, unassigned; (+)) [Example 67]"
2,14,"Cc1c(N2CC[C@@H](F)C2)nc2ccc(Br)cc2c1C(=O)NCC(CCC(=O)O)c1ccccc1Cl (single isomer, unassigned; (+)) [Example 68]"
3,3.9,"Cc1c(N2CCC[C@H]2C)nc2ccc(Br)cc2c1C(=O)NCC(CCC(=O)O)c1ccccc1Cl (single isomer, unassigned; (+)) [Example 82]"
4,6.4,"Cc1c(N2CCC[C@H]2C)nc2ccc(Br)cc2c1C(=O)NCC(CCC(=O)O)c1ccccc1Cl (single isomer, unassigned; (+)) [Example 83]"
5,9.9,"Cc1c(N2CCCCC2)nc2ccc(Br)cc2c1C(=O)NCC(CCC(=O)O)c1ccccc1C(F)(F)F (single isomer, unassigned; (+)) [Example 113, (+)-5-({[6-Bromo-3-methyl-2-(piperidin-1-yl)quinolin-4-yl]carbonyl}amino)-4-[2-(trifluoromethyl)phenyl]pentanoic acid]"
6,29,"Cc1c(N2CCCC2)nc2ccc(Br)cc2c1C(=O)NCC(CCC(=O)O)c1ccccc1C(F)(F)F (single isomer, unassigned; (+)) [Example 115, (+)-5-({[6-Bromo-3-methyl-2-(pyrrolidin-1-yl)quinolin-4-yl]carbonyl}amino)-4-[2-(trifluoromethyl)phenyl]pentanoic acid]"
7,14,"Cc1c(N2CCCC(F)(F)C2)nc2ccc(Br)cc2c1C(=O)NCC(CCC(=O)O)c1ccccc1C(F)(F)F (single isomer, unassigned; (+)) [Example 119, (+)-5-({[6-Bromo-2-(3,3-difluoropiperidin-1-yl)-3-methylquinolin-4-yl]carbonyl}amino)-4-[2-(trifluoromethyl)phenyl]pentanoic acid]"
8,6.7,"Cc1c(N2CCCCCC2)nc2ccc(Br)cc2c1C(=O)NCC(CCC(=O)O)c1ccccc1C(F)(F)F (single isomer, unassigned; (+)) [Example 122, (+)-5-({[2-(Azepan-1-yl)-6-bromo-3-methylquinolin-4-yl]carbonyl}amino)-4-[2-(trifluoromethyl)phenyl]pentanoic acid]"
9,3.8,"Cc1c(N2CCCCC2)nc2ccc(Br)cc2c1C(=O)NCC(CCC(=O)O)c1ccccc1OC(F)(F)F (single isomer, unassigned; (+)) [Example 128, (+)-5-({[6-Bromo-3-methyl-2-(piperidin-1-yl)quinolin-4-yl]carbonyl}amino)-4-[2-(trifluoromethoxy)phenyl]pentanoic acid]"
10,9.8,"Cc1c(N2CCCC2)nc2ccc(Br)cc2c1C(=O)NCC(CCC(=O)O)c1ccccc1OC(F)(F)F (single isomer, unassigned; (+)) [Example 131, (+)-5-({[6-Bromo-3-methyl-2-(pyrrolidin-1-yl)quinolin-4-yl]carbonyl}amino)-4-[2-(trifluoromethoxy)phenyl]pentanoic acid]"
11,4.9,"Cc1c(N2CCCC(F)(F)C2)nc2ccc(Br)cc2c1C(=O)NCC(CCC(=O)O)c1ccccc1OC(F)(F)F (single isomer, unassigned; (+)) [Example 134, (+)-5-({[6-Bromo-2-(3,3-difluoropiperidin-1-yl)-3-methylquinolin-4-yl]carbonyl}amino)-4-[2-(trifluoromethoxy)phenyl]pentanoic acid]"
12,3.8,"Cc1c(N2CCCCCC2)nc2ccc(Br)cc2c1C(=O)NCC(CCC(=O)O)c1ccccc1OC(F)(F)F (single isomer, unassigned; (+)) [Example 137, (+)-5-({[2-(Azepan-1-yl)-6-bromo-3-methylquinolin-4-yl]carbonyl}amino)-4-[2-(trifluoromethoxy)phenyl]pentanoic acid]"
13,9.3,"Cc1c(N2CCCCC2)nc2ccc(Br)cc2c1C(=O)NCC(CCC(=O)O)c1cccc(F)c1Cl (single isomer, unassigned; (+)) [Example 143, (+)-5-({[6-Bromo-3-methyl-2-(piperidin-1-yl)quinolin-4-yl]carbonyl}amino)-4-(2-chloro-3-fluorophenyl)pentanoic acid]"
14,22,"Cc1c(N2CCCCC2)nc2ccc(Br)cc2c1C(=O)NCC(CCC(=O)O)c1c(Cl)ccc(F)c1F (single isomer, unassigned; (+)) [Example 146, (+)-5-({[6-Bromo-3-methyl-2-(piperidin-1-yl)quinolin-4-yl]carbonyl}amino)-4-(6-chloro-2,3-difluorophenyl)pentanoic acid]"
15,13,"Cc1ccc(F)cc1C(CCC(=O)O)CNC(=O)c1c(C)c(N2CCCCC2)nc2ccc(Br)cc12 (single isomer, unassigned; (+)) [Example 149, (+)-5-({[6-Bromo-3-methyl-2-(piperidin-1-yl)quinolin-4-yl]carbonyl}amino)-4-(5-fluoro-2-methylphenyl)pentanoic acid]"
16,42,"Cc1c(N2CCCCC2)nc2ccc(Br)cc2c1C(=O)NCC(CCC(=O)O)c1c(F)cccc1C(F)(F)F (single isomer, unassigned; (+)) [Example 162, (+)-5-({[6-Bromo-3-methyl-2-(piperidin-1-yl)quinolin-4-yl]carbonyl}amino)-4-[2-fluoro-6-(trifluoromethyl)phenyl]pentanoic acid]"
17,80,"Cc1c(N2CCCC2)nc2ccc(Br)cc2c1C(=O)NCC(CCC(=O)O)c1c(F)cccc1C(F)(F)F (single isomer, unassigned; (+)) [Example 164, (+)-5-({[6-Bromo-3-methyl-2-(pyrrolidin-1-yl)quinolin-4-yl]carbonyl}amino)-4-[2-fluoro-6-(trifluoromethyl)phenyl]pentanoic acid]"
18,90,"Cc1c(N2CCCC(F)(F)C2)nc2ccc(Br)cc2c1C(=O)NCC(CCC(=O)O)c1c(F)cccc1C(F)(F)F (single isomer, unassigned; (+)) [Example 168, (+)-5-({[6-Bromo-2-(3,3-difluoropiperidin-1-yl)-3-methylquinolin-4-yl]carbonyl}amino)-4-[2-fluoro-6-(trifluoromethyl)phenyl]pentanoic acid]"
19,41,"Cc1c(N2CCCCC2)nc2ccc(Br)cc2c1C(=O)NCC(CCC(=O)O)c1c(Cl)ccc(Cl)c1Cl (single isomer, unassigned; (+)) [Example 172, (+)-5-({[6-Bromo-3-methyl-2-(piperidin-1-yl)quinolin-4-yl]carbonyl}amino)-4-(2,3,6-trichlorophenyl)pentanoic acid]"
20,56,"Cc1c(N2CCCC(F)(F)C2)nc2ccc(Br)cc2c1C(=O)NCC(CCC(=O)O)c1c(Cl)ccc(Cl)c1Cl (single isomer, unassigned; (+)) [Example 178, (+)-5-({[6-Bromo-2-(3,3-difluoropiperidin-1-yl)-3-methylquinolin-4-yl]carbonyl}amino)-4-(2,3,6-trichlorophenyl)pentanoic acid]"
21,13,"Cc1c(N2CCCCC2)nc2ccc(Br)cc2c1C(=O)NCC(CCC(=O)O)c1c(F)cccc1OC(F)F (single isomer, unassigned; (+)) [Example 184, (+)-5-({[6-Bromo-3-methyl-2-(piperidin-1-yl)quinolin-4-yl]carbonyl}amino)-4-[2-(difluoromethoxy)-6-fluorophenyl]pentanoic acid]"
22,24,"Cc1c(N2CCCC(F)C2)nc2ccc(Br)cc2c1C(=O)NCC(CCC(=O)O)c1ccccc1Cl (single isomer, unassigned; (+)) [Example 187, (+)-5-[({6-Bromo-2-[3-fluoropiperidin-1-yl]-3-methylquinolin-4-yl}carbonyl)amino]-4-(2-chlorophenyl)pentanoic acid]"
23,6.1,"Cc1c(N2CCCC(F)C2)nc2ccc(Br)cc2c1C(=O)NCC(CCC(=O)O)c1ccccc1Cl (single isomer, unassigned; (+)) [Example 188, (+)-5-[({6-Bromo-2-[3-fluoropiperidin-1-yl]-3-methylquinolin-4-yl}carbonyl)amino]-4-(2-chlorophenyl)pentanoic acid]"
24,25,"Cc1c(N2CCCC(F)C2)nc2ccc(Br)cc2c1C(=O)NCC(CCC(=O)O)c1ccccc1C(F)(F)F (single isomer, unassigned; (+)) [Example 189, (+)-5-[({6-Bromo-2-[3-fluoropiperidin-1-yl]-3-methylquinolin-4-yl}carbonyl)amino]-4-[2-(trifluoromethyl)phenyl]pentanoic acid]"
25,11,"Cc1c(N2CCCC(F)C2)nc2ccc(Br)cc2c1C(=O)NCC(CCC(=O)O)c1ccccc1C(F)(F)F (single isomer, unassigned; (+)) [Example 190, (+)-5-[({6-Bromo-2-[3-fluoropiperidin-1-yl]-3-methylquinolin-4-yl}carbonyl)amino]-4-[2-(trifluoromethyl)phenyl]pentanoic acid]"
26,0.62,"CCC1CCCN(c2nc3ccc(Br)cc3c(C(=O)NCC(CCC(=O)O)c3ccccc3C(F)(F)F)c2C)C1 (single isomer, unassigned; (+)) [Example 193, (+)-5-[({6-Bromo-2-[3-ethylpiperidin-1-yl]-3-methylquinolin-4-yl}carbonyl)amino]-4-[2-(trifluoromethyl)phenyl]pentanoic acid]"
27,2.6,"CCC1CCCN(c2nc3ccc(Br)cc3c(C(=O)NCC(CCC(=O)O)c3ccccc3C(F)(F)F)c2C)C1 (single isomer, unassigned; (+)) [Example 196, (+)-5-[({6-Bromo-2-[3-ethylpiperidin-1-yl]-3-methylquinolin-4-yl}carbonyl)amino]-4-[2-(trifluoromethyl)phenyl]pentanoic acid]"

row,SMILES,IC50 [nM]
1,"CCC1CCCN(c2nc3ccc(Br)cc3c(C(=O)NCC(CCC(=O)O)c3ccccc3Cl)c2C)C1 (single isomer, unassigned; (+)) [Example 61, (+)-5-[({6-Bromo-2-[3-ethylpiperidin-1-yl]-3-methylquinolin-4-yl}carbonyl)amino]-4-(2-chlorophenyl)pentanoic acid]",0.83
